Results reported in patent US7994209B2, “3-phenoxymethylpyrrolidine compounds” (Theravance, Inc., priority 2009, dated 2011).
Marks after values point to notes of the source that are not given here.

Legend:
hSERT = hSERT (Homo sapiens, UniProt P31645); assay: fluorescence-based serotonin reuptake inhibition assay (Tsuruda et al. 2010; data indicated by an asterisk); format: cell-based; set-up: expressed in transfected cells; host or cells: HEK-293; details: fluorescence-based assay (values with asterisk); for IC50: read-out: SERT pIC50 (converted)
hNET = hNET (Homo sapiens, UniProt P23975); assay: fluorescence-based norepinephrine reuptake inhibition assay (Tsuruda et al. 2010; data indicated by an asterisk); format: cell-based; set-up: expressed in transfected cells; host or cells: HEK-293; details: norepinephrine reuptake inhibition, fluorescence-based assay (values with asterisk); read-out: NET pIC50 (converted)
Sequence of hNET (P23975 whole entry): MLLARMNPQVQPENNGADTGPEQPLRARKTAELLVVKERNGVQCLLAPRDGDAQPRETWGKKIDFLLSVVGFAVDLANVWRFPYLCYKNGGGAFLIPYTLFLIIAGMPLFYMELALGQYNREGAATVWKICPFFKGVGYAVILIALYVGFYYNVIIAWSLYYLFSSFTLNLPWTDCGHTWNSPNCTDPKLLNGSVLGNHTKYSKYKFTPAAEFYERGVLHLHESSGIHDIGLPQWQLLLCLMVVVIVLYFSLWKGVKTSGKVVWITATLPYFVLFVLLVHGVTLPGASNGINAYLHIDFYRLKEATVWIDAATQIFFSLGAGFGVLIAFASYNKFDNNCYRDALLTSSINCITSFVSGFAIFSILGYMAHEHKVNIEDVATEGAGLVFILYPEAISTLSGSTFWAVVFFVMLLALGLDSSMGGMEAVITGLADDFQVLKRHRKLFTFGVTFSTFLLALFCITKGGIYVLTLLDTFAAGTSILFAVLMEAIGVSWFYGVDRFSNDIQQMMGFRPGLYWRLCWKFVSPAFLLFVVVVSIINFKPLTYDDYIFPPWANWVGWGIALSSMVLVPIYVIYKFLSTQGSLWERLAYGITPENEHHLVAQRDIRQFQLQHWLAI

Sequence of hSERT (P31645 whole entry): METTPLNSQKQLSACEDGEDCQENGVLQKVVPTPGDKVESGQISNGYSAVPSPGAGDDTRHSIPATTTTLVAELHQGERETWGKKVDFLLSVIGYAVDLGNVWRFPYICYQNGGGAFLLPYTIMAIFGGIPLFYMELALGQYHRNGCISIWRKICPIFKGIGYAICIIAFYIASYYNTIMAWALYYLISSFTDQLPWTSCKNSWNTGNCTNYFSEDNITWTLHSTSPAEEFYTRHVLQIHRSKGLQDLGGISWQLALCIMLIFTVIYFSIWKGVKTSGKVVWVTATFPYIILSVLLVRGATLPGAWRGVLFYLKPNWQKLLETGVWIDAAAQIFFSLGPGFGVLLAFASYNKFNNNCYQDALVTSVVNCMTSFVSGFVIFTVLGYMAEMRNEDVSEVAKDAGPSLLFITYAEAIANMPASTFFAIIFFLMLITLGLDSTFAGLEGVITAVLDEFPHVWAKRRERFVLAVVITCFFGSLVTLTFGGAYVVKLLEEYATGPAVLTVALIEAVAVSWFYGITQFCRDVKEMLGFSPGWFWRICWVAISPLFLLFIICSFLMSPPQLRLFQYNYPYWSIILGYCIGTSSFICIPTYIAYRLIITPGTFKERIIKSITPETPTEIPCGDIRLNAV

IC50 (hSERT) [nM]	IC50 (hNET) [nM]	SERT pIC50 (hSERT)	Compound
≤ 10	≤ 100		CC(C)[C@H](Oc1cccc2ccccc12)[C@@H]1CCNC1 [Example 14-4, (R)-3-[(S)-2-Methyl-1-(naphthalen-1-yloxy)propyl]pyrrolidine]
≤ 10	≤ 10		CC(C)[C@@H](Oc1cccc2ccccc12)[C@H]1CCNC1 [Example 14-6, (S)-3-[(R)-2-Methyl-1-(naphthalen-1-yloxy)propyl]pyrrolidine]
≤ 10	≤ 100		CC(C)[C@@H](Oc1cccc2ccccc12)[C@@H]1CCNC1 [Example 14-7, (R)-3-[(R)-2-Methyl-1-(naphthalen-1-yloxy)propyl]pyrrolidine]
≤ 10	≤ 10		CC(C)C[C@H](Oc1cccc2ccccc12)[C@H]1CCNC1 [Example 14-8, (S)-3-[(S)-3-Methyl-1-(naphthalen-1-yloxy)butyl]pyrrolidine]
≤ 10	≤ 10		CC(C)C[C@@H](Oc1cccc2ccccc12)[C@H]1CCNC1 [Example 14-9, (S)-3-[(R)-3-Methyl-1-(naphthalen-1-yloxy)butyl]pyrrolidine]
≤ 10	≤ 10		Fc1c(Cl)ccc(O[C@@H](C2CC2)[C@H]2CCNC2)c1F [Example 16-48, (S)-3-[(S)-(4-Chloro-2,3-difluorophenoxy)cyclopropylmethyl]pyrrolidine]
≤ 10	≤ 10		Fc1c(Cl)ccc(O[C@H](C2CC2)[C@H]2CCNC2)c1F [Example 16-49, (S)-3-[(R)-(4-Chloro-2,3-difluorophenoxy)cyclopropylmethyl]pyrrolidine]
≤ 100	≤ 100		Fc1cc(Cl)cc(O[C@@H](C2CC2)[C@H]2CCNC2)c1Cl [Example 16-57, (S)-3-[(S)cyclopropyl-(2,5-dichloro-3-fluorophenoxy)methyl]pyrrolidine]
≤ 100	≤ 100		Cc1cc(Cl)cc(Cl)c1O[C@H](C1CC1)[C@H]1CCNC1 [Example 16-78, (S)-3-[(R)cyclopropyl-(2,4-dichloro-6-methylphenoxy)methyl]pyrrolidine]
≤ 100	≤ 10		COc1cc(Cl)cc(O[C@@H](C2CC2)[C@H]2CCNC2)c1 [Example 16-100, (S)-3-[(S)-(3-Chloro-5-methoxyphenoxy)cyclopropylmethyl]pyrrolidine]
≤ 10	≤ 100		Cc1cc(O[C@@H](C2CC2)[C@H]2CCNC2)cc(C)c1Cl [Example 16-101, (S)-3-[(S)-(4-Chloro-3,5-dimethylphenoxy)cyclopropylmethyl]pyrrolidine]
≤ 10	≤ 10		Clc1cccc(OC(C2CCCC2)C2CCNC2)c1Cl (stereo not drawn) [Example 18-1, 3-[Cyclopentyl-(2,3-dichlorophenoxy)methyl]pyrrolidine]
	≤ 100	≧8.0*	Cc1ccc(OC(C2CCCC2)C2CCNC2)c(Cl)c1 (stereo not drawn) [Example 18-6, 3-[(2-Chloro-4-methylphenoxy)cyclopentylmethyl]pyrrolidine]
≤ 10	≤ 100		Cc1cc(Cl)ccc1OC(C1CCCC1)C1CCNC1 (stereo not drawn) [Example 18-7, 3-[(4-Chloro-2-methylphenoxy)cyclopentylmethyl]pyrrolidine]

Second part, the compound before the results:

Compound	IC50 (hSERT) [nM]	IC50 (hNET) [nM]	SERT pIC50 (hSERT)
COc1cc(Cl)ccc1O[C@H](C(C)C)[C@@H]1CCNC1 [Example 6-48, (R)-3-[(R)-1-(4-Chloro-2-methoxyphenoxy)-2-methylpropyl]pyrrolidine]	≤ 10	≤ 100	
CC(C)[C@@H](Oc1ccc(Cl)c(F)c1)[C@H]1CCNC1 [Example 6-57, (S)-3-[(R)-1-(4-Chloro-3-fluorophenoxy)-2-methylpropyl]pyrrolidine]	≤ 10	≤ 100	
CC(C)[C@@H](Oc1ccc(Cl)c(F)c1)[C@@H]1CCNC1 [Example 6-58, (R)-3-[(R)-1-(4-Chloro-3-fluorophenoxy)-2-methylpropyl]pyrrolidine]	≤ 10	≤ 100	
CC(C)[C@H](Oc1cc(F)cc(Cl)c1)[C@H]1CCNC1 [Example 6-59, (S)-3-[(S)-1-(3-Chloro-5-fluorophenoxy)-2-methylpropyl]pyrrolidine]	≤ 100	≤ 10	
CC(C)[C@@H](Oc1cc(F)cc(Cl)c1)[C@H]1CCNC1 [Example 6-60, (S)-3-[(R)-1-(3-Chloro-5-fluorophenoxy)-2-methylpropyl]pyrrolidine]	≤ 10	≤ 10	
CC(C)[C@@H](Oc1cc(F)cc(Cl)c1)[C@@H]1CCNC1 [Example 6-61, (R)-3-[(R)-1-(3-Chloro-5-fluorophenoxy)-2-methylpropyl]pyrrolidine]	≤ 100	≤ 100	
CC(C)[C@@H](Oc1ccc(Cl)c(Cl)c1)[C@H]1CCNC1 [Example 6-63, (S)-3-[(R)-1-(3,4-Dichlorophenoxy)-2-methylpropyl]pyrrolidine]	≤ 10	≤ 100	
CC(C)[C@@H](Oc1ccc(Cl)c(Cl)c1)[C@@H]1CCNC1 [Example 6-64, (R)-3-[(R)-1-(3,4-Dichlorophenoxy)-2-methylpropyl]pyrrolidine]	≤ 10	≤ 100	
CC(C)[C@H](Oc1ccc(Cl)c(Cl)c1)[C@@H]1CCNC1 [Example 6-65, (R)-3-[(S)-1-(3,4-Dichlorophenoxy)-2-methylpropyl]pyrrolidine]	≤ 10	≤ 100	
CC(C)[C@H](Oc1cc(Cl)cc(Cl)c1)[C@@H]1CCNC1 [Example 6-69, (R)-3-[(S)-1-(3,5-Dichlorophenoxy)-2-methylpropyl]pyrrolidine]	≤ 100	≤ 100	
Cc1cc(O[C@H](C(C)C)[C@H]2CCNC2)ccc1Cl [Example 6-71, (S)-3-[(R)-1-(4-Chloro-3-methylphenoxy)-2-methylpropyl]pyrrolidine]	≤ 10	≤ 100	
CC(C)C[C@H](Oc1cccc(C(F)(F)F)c1F)[C@H]1CCNC1 [Example 10-21, (S)-3-[(S)-1-(2-Fluoro-3-trifluoromethylphenoxy)-3-methylbutyl]pyrrolidine]	≤ 10	≤ 10	
CC(C)C[C@@H](Oc1cccc(Cl)c1C(F)(F)F)[C@H]1CCNC1 [Example 10-34, (S)-3-[(R)-1-(3-Chloro-2-trifluoromethylphenoxy)-3-methylbutyl]pyrrolidine]	≤ 10	≤ 100	
CC(C)C[C@@H](Oc1ccc(Cl)cc1F)[C@H]1CCNC1 [Example 10-40, (S)-3-[(R)-1-(4-Chloro-2-fluorophenoxy)-3-methylbutyl]pyrrolidine]	≤ 100	≤ 10	
CC(C)C[C@H](Oc1cc(Cl)ccc1Cl)[C@H]1CCNC1 [Example 10-51, (S)-3-[(S)-1-(2,5-Dichlorophenoxy)-3-methylbutyl]pyrrolidine]	≤ 10	≤ 10	
CC(C)C[C@H](Oc1c(F)ccc(Cl)c1F)[C@H]1CCNC1 [Example 10-60, (S)-3-[(S)-1-(3-Chloro-2,6-difluorophenoxy)-3-methylbutyl]pyrrolidine]	≤ 10	≤ 10	
CC(C)C[C@H](Oc1c(F)ccc(F)c1Cl)[C@H]1CCNC1 [Example 10-63, (S)-3-[(S)-1-(2-Chloro-3,6-difluorophenoxy)-3-methylbutyl]pyrrolidine]	≤ 10	≤ 10	
CC(C)C[C@H](Oc1c(F)ccc(Cl)c1Cl)[C@H]1CCNC1 [Example 10-65, (S)-3-[(S)-1-(2,3-Dichloro-6-fluorophenoxy)-3-methylbutyl]pyrrolidine]	≤ 10	≤ 10	
CC(C)C[C@H](Oc1c(F)cc(Cl)cc1F)[C@H]1CCNC1 [Example 10-67, (S)-3-[(S)-1-(4-Chloro-2,6-difluorophenoxy)-3-methylbutyl]pyrrolidine]	≤ 10	≤ 10	
CC(C)C[C@@H](Oc1ccc(Cl)c(F)c1)[C@H]1CCNC1 [Example 10-71, (S)-3-[(R)-1-(4-Chloro-3-fluorophenoxy)-3-methylbutyl]pyrrolidine]	≤ 10	≤ 10	
CC(C)C[C@H](Oc1ccc(Cl)c(F)c1)[C@H]1CCNC1 [Example 10-72, (S)-3-[(S)-1-(4-Chloro-3-fluorophenoxy)-3-methylbutyl]pyrrolidine]	≤ 10	≤ 10	
CC(C)C[C@H](Oc1ccc(Cl)c(Cl)c1)[C@H]1CCNC1 [Example 10-74, (S)-3-[(S)-1-(3,4-Dichlorophenoxy)-3-methylbutyl]pyrrolidine]	≤ 10	≤ 10	
Cc1cc(O[C@@H](CC(C)C)[C@H]2CCNC2)ccc1Cl [Example 10-75, (S)-3-[(S)-1-(4-Chloro-3-methylphenoxy)-3-methylbutyl]pyrrolidine]	≤ 10	≤ 10	
Cc1cc(O[C@H](CC(C)C)[C@H]2CCNC2)ccc1Cl [Example 10-76, (S)-3-[(R)-1-(4-Chloro-3-methylphenoxy)-3-methylbutyl]pyrrolidine]	≤ 10	≤ 100	
CC(C)C[C@@H](Oc1cc(F)cc(Cl)c1)[C@H]1CCNC1 [Example 10-83, (S)-3-[(R)-1-(3-Chloro-5-fluorophenoxy)-3-methylbutyl]pyrrolidine]	≤ 100	≤ 10	
CC(C)C[C@H](Oc1c(Cl)c(F)cc(F)c1Cl)[C@H]1CCNC1 [Example 10-85, (S)-3-[(S)-1-(2,6-Dichloro-3,5-difluorophenoxy)-3-methylbutyl]pyrrolidine]	≤ 10	≤ 10	
CCC(CC)[C@@H](Oc1cccc(Cl)c1Cl)[C@H]1CCNC1 [Example 11, (S)-3-[(R)-1-(2,3-Dichlorophenoxy)-2-ethylbutyl]pyrrolidine]	≤ 10	≤ 10	
CCC(CC)[C@H](Oc1cccc(Cl)c1Cl)[C@H]1CCNC1 [Example 12-1, (S)-3-[(S)-1-(2,3-Dichlorophenoxy)-2-ethylbutyl]pyrrolidine]	≤ 10	≤ 10	
